We go through 2 molecules from PMC10721633 (Nature Communications, 2023).

One data set has as its target T1, DnaA^104-446 (Bacillus subtilis, UniProt P05648).
T1 construct: domains III-IV, residues 104-446; His14-SUMO tag cleaved; E. coli BL21(DE3)-pLysS; heptamer on tailed BUS DNA, glutaraldehyde crosslinked
In words: cryo-EM structure. The class given is binding. The note with it: BUS DNA scaffold, 2 uM ATP, 1 mM magnesium acetate, pH 7.5, 37 °C, glutaraldehyde crosslinked.

A further data set addresses T2, DnaA (Bacillus subtilis, UniProt P05648).
T2 construct: full length; His14-SUMO tag cleaved; E. coli BL21(DE3)-pLysS
Kind of data set: single-molecule TIRF DNA strand separation. Format: biochemical. The note with it: BUS DNA scaffold, 50 nM DnaA, 10 mM magnesium acetate, 100 mM potassium glutamate, pH 7.6.

Data set [1] concerns the molecule itself. In words: cryo-EM structure; 4 µM partially ssDNA scaffold with 40 µM DnaA^104–446 monomer, 10 mM HEPES pH 7.5, 100 mM potassium glutamate, 1 mM magnesium acetate, 2 µM ATP, 37 °C 10 min; cross-linked with 0.1% glutaraldehyde, multimeric complex isolated by SEC (Superdex 200); oligomer assembled on DNA.

T2 sequence (P05648 whole entry): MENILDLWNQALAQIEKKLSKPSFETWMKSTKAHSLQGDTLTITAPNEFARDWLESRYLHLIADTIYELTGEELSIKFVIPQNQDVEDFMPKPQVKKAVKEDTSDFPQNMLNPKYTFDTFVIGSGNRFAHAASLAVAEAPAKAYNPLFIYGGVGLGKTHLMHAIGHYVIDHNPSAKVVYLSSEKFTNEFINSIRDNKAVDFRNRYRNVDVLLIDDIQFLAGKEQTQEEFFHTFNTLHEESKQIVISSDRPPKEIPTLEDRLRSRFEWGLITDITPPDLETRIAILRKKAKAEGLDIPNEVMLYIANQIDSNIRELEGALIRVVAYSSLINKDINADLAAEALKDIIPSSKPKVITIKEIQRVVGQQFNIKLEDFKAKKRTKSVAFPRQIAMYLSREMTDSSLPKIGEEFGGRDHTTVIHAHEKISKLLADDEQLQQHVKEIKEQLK

With `Nc1ncnc2c1ncn2[C@@H]1O[C@H](COP(=O)(O)OP(=O)(O)OP(=O)(O)O)[C@@H](O)[C@H]1O` [ATP], the cryo-EM structure entry at DnaA^104-446 was “The cryo-EM model reveals seven DnaA^ATP protomers (termed DnaA1-7) engaging the DNA scaffold”. At DnaA, the “single-molecule TIRF DNA strand separation” value is recorded as “The addition of DnaA^ATP to the immobilized DNA scaffolds stimulated a reduction in the number”.

B1: DnaA^104–446 (Bacillus subtilis DnaA lacking domains I-II; domains III-IV) (domain or fragment, UniProt P05648 104-446, looked up)
chain: SDFPQNMLNPKYTFDTFVIGSGNRFAHAASLAVAEAPAKAYNPLFIYGGVGLGKTHLMHAIGHYVIDHNPSAKVVYLSSEKFTNEFINSIRDNKAVDFRNRYRNVDVLLIDDIQFLAGKEQTQEEFFHTFNTLHEESKQIVISSDRPPKEIPTLEDRLRSRFEWGLITDITPPDLETRIAILRKKAKAEGLDIPNEVMLYIANQIDSNIRELEGALIRVVAYSSLINKDINADLAAEALKDIIPSSKPKVITIKEIQRVVGQQFNIKLEDFKAKKRTKSVAFPRQIAMYLSREMTDSSLPKIGEEFGGRDHTTVIHAHEKISKLLADDEQLQQHVKEIKEQLK
notes: also called DnaA1-7 (the seven protomers in the BUS complex); DnaA^ATP; source: E. coli BL21(DE3)-pLysS, purified (HisTrap, HiTrap Heparin, SUMO protease digestion, second HisTrap flow-through); not shown: His14, N-terminal, cleaved; SUMO, N-terminal, cleaved
In the case of B1, in data set [1], the “stoichiometry N” value was 7.
